Reference: patent publication US8686043B2, “Heterocyclic sulfonamides, uses and pharmaceutical compositions thereof” (Pfizer Inc., priority 2009, dated 2014)

Tested on: AMPA receptors
Experiment: AMPA ES Cell FLIPR Screen (AMPA Potentiator Assay)
Format: cell-based, murine
Settings: ES cell-derived neurons, FLIPR (Fluo-4), 32 μM AMPA challenge; values marked * are the geometric mean of 2-5 EC50 determinations
From the text: Growth and Maintenance of ES Cells
Murine ES cell line E14, with a targeted mutation in the Sox1 gene and a neuroectodermal marker that offers G418 resistance when the Sox1 gene is expressed (Stem Cell Sciences, West Mains Road, Edinburgh, Scotland EH9 3JQ) may be used in all experiments. ES cells may be maintained undifferentiated as previously described (Methods For The Isolation And Maintenance Of Murine Embryonic Stem Cells; Roach-M-L, McNeish-J-D., Methods in Molecular Biology, 185, 1-16 (2002)). Briefly, ES cells may be grown in stem cell culture media comprising a base medium of Knockout™ D-MEM (Invitrogen 5791 Van Allen Way, Carlsbad, Calif. USA 92008), supplemented with 15% ES qualified Fetal Bovine Serum (FBS) (Invitrogen), 0.2 mM L-Glutamine (Invitrogen), 0.1 mM MEM non-essential amino acids (Invitrogen), 30 μg/ml Gentamicin […] (Invitrogen), 1000 U/ml ESGRO™ (CHEMICON International, Inc., 28820 Single Oak Drive, Temecula, Calif. 92590) and 0.1 mM 2-mercaptoethanol (Sigma, 3050 Spruce St., St. Louis, Mo. 63103). ES cells may then be plated on gelatin-coated dishes (BD Biosciences, 2350 Qume Drive, San Jose, Calif. 95131), wherein the media is changed daily and the cells dissociated with 0.05% Trypsin EDTA (Invitrogen) every other day.
Neural In Vitro Differentiation of ES Cells
Embryoid Body Formation: Prior to embryoid body (EB) formation the ES cells may be weaned from FBS onto Knockout Serum Replacement™ (KSR) (Invitrogen). To form EBs, ES cells may be dissociated into a single cell suspension, then 3×10^6 cells plated in bacteriology dishes (Nunc 4014) and grown as a suspension culture in NeuroEB-I medium that consisted of Knockout™ D-MEM (Invitrogen), supplemented with 10% KSR (Invitrogen), 0.2 mM L-Glutamine (Invitrogen), 0.1 mM MEM non-essential amino acids (Invitrogen), 30 μg/ml Gentamicin (Invitrogen), 1000 U/ml ESGRO™ (CHEMICON International, Inc.), 0.1 mM 2-mercaptoethanol (Sigma) and 150 ng/ml Transferrin (Invitrogen). The plates may then be put on a Stovall Belly Button™ shaker in an atmospheric oxygen incubator. The media may be changed on day 2 of EB formation with NeuroEB-I and on day 4 with NeuroEB-II (NeuroEB-I plus 1 μg/ml mNoggin (R&D Systems, 614 McKinley Place N.E. Minneapolis, Minn. 55413)
Neuronal Precursor Selection and Expansion: On day 5 of EB formation, EBs may be dissociated with 0.05% Trypsin EDTA, and 4×10^6 cells/100 mm dish may then be plated on Laminin coated tissue culture dishes in NeuroEB-II-G418 medium that consisted of a base medium of a 1:1 mixture of D-MEM/F12 supplemented with N2 supplements and NeuroBasal Medium supplemented with B27(I ASSUME THIS IS THE VITAMIN) supplement and 0.1 mM L-Glutamine (all from Invitrogen). The base medium may then be supplemented with 10 ng/ml bFGF (Invitrogen), 1 μg/ml mNoggin, 500 ng/ml SHH-N (IS THIS SONIC HEDGEHOG FROM ProSpecBio Rehovot Science Park, P.O. BOX 398, Rehovot 76103, Israel), 100 ng/ml FGF-8b (R&D Systems), 1 μg/ml Laminin and 200 μg/ml G418 (Invitrogen) for selection of neuronal precursors expressing Sox-1. The plates may then be put in an incubator containing 2% oxygen and maintained in these conditions. During the 6-day selection period, the NeuroEB-II ([…]) media should be changed daily. On day 6, the surviving neuronal precursor foci may then be dissociated with 0.05% Trypsin EDTA and the cells plated at a density of 1.5×10^6 cells/100 mm Laminin coated dish in Neuroll ([…])-G418 medium. The cells may then be dissociated every other day for expansion, and prepared for cryopreservation at passage 3 or 4. The cryopreservation medium typically contains 50% KSR, 10% dimethyl sulfoxide (DMSO) (Sigma) and 40% Neurol([…])-G418 medium. Neuronal precursors may be cryopreserved at a concentration of 4×10^6 cells/ml and 1 ml/cryovial in a controlled rate freezer overnight then transferred to an ultra-low freezer or liquid nitrogen for long-term storage. […]

SMILES | EC50 [µM]
CC(=O)NC1CCN(c2ccc(O[C@@H]3COC[C@H]3NS(=O)(=O)C(C)C)cc2)C1 (mixture of isomers) [Example 1, N-{1-[4-trans-({4-[(isopropylsulfonyl)amino]tetrahydrofuran-3-yl}oxy)phenyl]pyrrolidin-3-yl}acetamide] | 3.33
CC(C)S(=O)(=O)N[C@H]1COC[C@H]1Oc1ccc(-c2ccc(C#N)s2)nc1 (racemic) [Example 23, cis-N-[4-{[6-(5-cyano-2-thienyl)pyridin-3-yl]oxy}tetra hydrofuran-3-yl]propane-2-sulfonamide] | 2.58
CC(C)S(=O)(=O)N[C@H]1COC[C@H]1Oc1ccc(-c2ccc(N(C)C)nc2)cc1 (racemic) [Example 43, cis-N-[4-{4-[6-(dimethyl-amino)-pyridin-3-yl]phenoxy}-tetrahydrofuran-3-yl]propane-2-sulfonamide] | 4.48
Cc1ccc(-c2ccc(O[C@@H]3COC[C@@H]3NS(=O)(=O)C(C)C)cc2)cc1 (racemic) [Example 45, cis-N-{4-[(4′-methylbiphenyl-4-yl)oxy]-tetrahydrofuran-3-yl}propane-2-sulfonamide] | 2.55
CC(C)S(=O)(=O)N[C@H]1COC[C@H]1Oc1ccc(-c2cccc(C(F)(F)F)c2)cc1 (racemic) [Example 47, cis-N-[4-{[3′-(trifluoromethyl)biphenyl-4-yl]oxy}tetrahydrofuran-3-yl]propane-2-sulfonamide] | 3.82
CC(C)S(=O)(=O)N[C@H]1COC[C@H]1Oc1ccc(-c2ccncc2)cc1 (racemic) [Example 48, cis-N-[4-(4-pyridin-4-ylphenoxy)tetrahydrofuran-3-yl]propane-2-sulfonamide] | 0.626
CC(C)S(=O)(=O)N[C@@H]1COC[C@@H]1Oc1ccc(-c2ccc(C#N)cc2)cc1 (relative stereo) [Example 9, cis-N-{4-[(4′-cyanobiphenyl-4-yl)oxy]tetra hydrofuran-3-yl}propane-2-sulfonamide] | 6.15
COc1ccc(-c2ccc(O[C@H]3COC[C@H]3NS(=O)(=O)C(C)C)cc2)cn1 (relative stereo) [Example 13, cis-N-{4-[4-(6-methoxypyridin-3-yl)phenoxy]tetrahydrofuran-3-yl}propane-2-sulfonamide] | 5.28
CC(C)S(=O)(=O)N[C@@H]1COC[C@@H]1Oc1ccc(-c2ccoc2)cc1 (relative stereo) [Example 14, cis-N-{4-[4-(3-furyl)phenoxy]tetrahydrofuran-3-yl}propane-2-sulfonamide] | 2.32
CC(C)S(=O)(=O)N[C@@H]1COC[C@@H]1Oc1ccc(-c2ccsc2)cc1 (relative stereo) [Example 24, cis-N-{4-[4-(3-thienyl)phenoxy]tetrahydrofuran-3-yl}propane-2-sulfonamide] | 0.523
CC(C)S(=O)(=O)N[C@H]1COC[C@H]1Oc1ccc(-c2ccc(C(=O)N(C)C)cc2)cc1 (relative stereo) [Example 46, cis-4′-({4-[(isopropyl-sulfonyl)-amino]tetrahydrofuran-3-yl}oxy)-N,N-dimethyl-biphenyl-4-carboxamide] | 6.76
CC(C)S(=O)(=O)N[C@H]1COC[C@H]1Oc1ccc(-c2ccccc2S(=O)(=O)NC(C)(C)C)cc1 (relative stereo) [Example 51, cis-N-tert-butyl-4′-({4-[(isopropylsulfonyl)amino]tetrahydrofuran-3-yl}oxy)biphenyl-2-sulfonamide] | 2.09
CC(C)S(=O)(=O)N[C@H]1COC[C@H]1Oc1ccc(-c2cccc(C(N)=O)c2)cc1 (relative stereo) [Example 53, cis-4′-({4-[(isopropylsulfonyl)amino]tetrahydrofuran-3-yl}oxy) biphenyl-3-carboxamide] | 1.11
CC(C)S(=O)(=O)N[C@H]1COC[C@H]1Oc1ccc(-c2ccccc2)cc1 [Example 2, N-[(3S,4S)-4-(biphenyl-4-yloxy)tetrahydrofuran-3-yl]propane-2-sulfonamide] | 1.36
CC(C)S(=O)(=O)N[C@H]1COC[C@H]1Oc1ccc(-c2ccc(C#N)s2)cc1 [Example 4, N-{(3S,4S)-4-[4-(5-cyano-2-thienyl)phenoxy]tetrahydrofuran-3-yl}propane-2-sulfonamide] | 1.79

Further lines, results first:

EC50 [µM] | SMILES
2.91 | CCOc1ccccc1-c1ccc(O[C@@H]2COC[C@H]2NS(=O)(=O)C(C)C)cc1 (racemic) [Example 8, trans-N-{4-[(2′-ethoxybiphenyl-4-yl)oxy]tetrahydrofuran-3-yl}propane-2-sulfonamide.]
2.7 | CC(C)S(=O)(=O)N[C@H]1COC[C@H]1Oc1ccc(-c2ccccc2C(F)(F)F)cc1 (racemic) [Example 44, cis-N-[4-{[2′-(trifluoro-methyl)-biphenyl-4-yl]oxy}-tetrahydrofuran-3-yl]propane-2-sulfonamide]
0.452 | CC(C)S(=O)(=O)N[C@H]1COC[C@H]1Oc1ccc(-c2cccc3ncccc23)cc1 (racemic) [Example 50, cis-N-[4-(4-quinolin-5-ylphenoxy)tetrahydrofuran-3-yl]propane-2-sulfonamide]
1.25 | CC(C)S(=O)(=O)N[C@H]1COC[C@H]1Oc1ccc(-c2cccc3cnccc23)cc1 (racemic) [Example 52, cis-N-[4-(4-isoquinolin-5-ylphenoxy)tetrahydrofuran-3-yl]propane-2-sulfonamide]
1.16 | CC(C)S(=O)(=O)N[C@@H]1COC[C@@H]1Oc1ccc(-c2cccnc2)cc1 (relative stereo) [Example 10, cis-N-[4-(4-pyridin-3-ylphenoxy)tetrahydrofuran-3-yl]propane-2-sulfonamide]
0.689 | CC(C)S(=O)(=O)N[C@@H]1COC[C@@H]1Oc1ccc(-c2cccs2)cc1 (relative stereo) [Example 11, cis-N-{4-[4-(2-thienyl)phenoxy]tetrahydrofuran-3-yl}propane-2-sulfonamide]
1.1 | CC(C)S(=O)(=O)N[C@@H]1COC[C@@H]1Oc1ccc(-c2ccc(F)nc2)cc1 (relative stereo) [Example 12, cis-N-{4-[4-(6-fluoropyridin-3-yl)phenoxy]tetrahydrofuran-3-yl}propane-2-sulfonamide]
2.88 | CC(C)S(=O)(=O)N[C@@H]1COC[C@@H]1Oc1ccc(-c2cccnc2F)cc1 (relative stereo) [Example 15, cis-N-{4-[4-(2-fluoropyridin-3-yl)phenoxy]tetrahydrofuran-3-yl}propane-2-sulfonamide]
1.41 | CC(C)S(=O)(=O)N[C@H]1COC[C@H]1Oc1ccc(-c2ccccc2C(N)=O)cc1 (relative stereo) [Example 49, cis-4′-({4-[(isopropylsulfonyl)amino]tetrahydrofuran-3-yl}oxy)biphenyl-2-carboxamide]
< 0.01 | CC(C)S(=O)(=O)N[C@H]1COC[C@H]1Oc1ccc(-c2ccc(F)cc2C#N)cc1 (single isomer, unassigned) [Example 16]
0.405 | CC(C)S(=O)(=O)N[C@H]1COC[C@H]1Oc1ccc(-c2ccc(F)cc2)cc1 (single isomer, unassigned) [Example 17]
0.0217 | CC(C)S(=O)(=O)N[C@H]1COC[C@H]1Oc1ccc(-c2ccccc2C#N)cc1 [Example 3, N-{(3S,4S)-4-[(2′-cyanobiphenyl-4-yl)oxy]tetrahydrofuran-3-yl}propane-2-sulfonamide]
